Patent publication US8900591B2, “Vaccines comprising mutant GPCRs with increased conformational stability relative to parent receptors” (Heptares Therapeutics Limited, priority 2010, dated 2014)

Key:
[1] = tested on: 5-HT2A, 5-HT2B and 5-HT2C serotonin receptors; conditions: cited from earlier work
[2] = tested on: endogenous β1AR in untransfected HEK293s; assay: CRE-luc reporter assay on untransfected HEK293 cells; format: cell-based, human; conditions: 1 μM forskolin, non-transfected cells
Text: One read-out that can be employed to assess the functional activity of the resulting sera is the impact on cAMP signalling. The CRE-luc reporter assay was employed where the CRE response from activation of AC-cAMP-PKA pathway is the read-out.
The first interim bleeds were initially evaluated only on transfected cells to assess if any functional response could be observed at this stage of immunisation. […].

For `C[C@@H](N)Cc1c2ccoc2c(Br)c2ccoc12` [Bromo-DragonFLY], the “potency for 5-HT2C receptors relative to 5-HT2A” value [1] is given as “twice as potent” and the “selectivity for 5-HT2A over 5-HT2B” value [1] is given as “less than 5 ×”.
With `C=C[C@@]1(C)CC(=O)[C@]2(O)[C@@]3(C)[C@@H](O)CCC(C)(C)[C@@H]3[C@H](O)[C@H](OC(C)=O)[C@@]2(C)O1` [forskolin] the “CRE-luc response to forskolin stimulation” value [2] was ~20,000 RLU.
